From patent US20060069132A1, “Azolecarboxamide herbicides” (priority 2004, published 2006)

How the values were obtained:
rice [1] = assay: Test B pre-/postemergence herbicide test; format: in vivo, Oryza sativa; settings: preemergence
Method in brief: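 Evaluation is visual, comparing treated with control plants on a scale where 0 means no effect and 100 means full control. Treatments were preemergence, or postemergence on seedlings 2–18 cm tall, and held 13–15 days in the greenhouse.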

bermudagrass = assay: Test C pre-/postemergence herbicide test; format: in vivo, Cynodon dactylon; settings: for Bermudagrass plant response rating: Preemergence, 500 g ai/ha
Method in brief: (§1)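 Visual injury scores run from 0 (no effect) to 100 (complete control), assessed relative to untreated controls 12 to 14 days after treatment in the greenhouse. Chemicals were formulated in a non-phytotoxic solvent mixture with surfactant and applied to soil after planting or to emerged plants at the 1- to 4-leaf stage.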

corn = assay: Test C pre-/postemergence herbicide test; format: in vivo, Zea mays; settings: for Plant response rating, Corn / Plant response rating (0 = no effect, 100 = complete control), Corn: preemergence; for Corn plant response rating: Preemergence, scale 0 to 100, 0 no effect, 100 complete control
Method in brief: as §1

woolly cupgrass = assay: Test C pre-/postemergence herbicide test; format: in vivo, Eriochloa villosa; settings: for Plant response rating, Cupgrass, Woolly / Plant response rating (0 = no effect, 100 = complete control), Cupgrass, Woolly: preemergence; for Cupgrass, Woolly plant response rating: Preemergence, scale 0 to 100, 0 no effect, 100 complete control
Method in brief: as §1

soybean = assay: Test C pre-/postemergence herbicide test; format: in vivo, Glycine max; settings: for Plant response rating, Soybean / Plant response rating (0 = no effect, 100 = complete control), Soybean: preemergence; for Soybean plant response rating: Preemergence, scale 0 to 100, 0 no effect, 100 complete control
Method in brief: as §1

[2] = test system: common (oilseed) sunflower; assay: Test C pre-/postemergence herbicide test; format: in vivo, Helianthus annuus; settings: for Plant response rating, Sunflower / Plant response rating (0 = no effect, 100 = complete control), Sunflower: preemergence; for Sunflower plant response rating: Preemergence, scale 0 to 100, 0 no effect, 100 complete control
Method in brief: as §1

velvetleaf = assay: Test C pre-/postemergence herbicide test; format: in vivo, Abutilon theophrasti; settings: for Plant response rating, Velvetleaf: preemergence; for Velvetleaf plant response rating: Preemergence, scale 0 to 100, 0 no effect, 100 complete control
Method in brief: as §1

rice [3] = assay: Test C flooded paddy test; format: in vivo, Oryza sativa; settings: for Plant response rating, Rice: 500 g ai/ha, visual rating after 12 to 14 days
Method in brief: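 Injury scored visually against controls on a 0 (no effect) to 100 (complete control) scale, 12 to 14 days after treatment in greenhouse. Flooded paddy plants treated at 2-leaf stage; postemergence plants at 1- to 4-leaf stage, 2 to 18 cm tall.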

[4] = test system: smallflower umbrella sedge; assay: Test C flooded paddy test; format: in vivo, Cyperus difformis; settings: for Plant response rating, Sedge, Umbrella: 500 g ai/ha, visual rating after 12 to 14 days
[5] = 125 g ai/ha, 0 = no effect, 100 = complete control
[6] = 500 g ai/ha, visual rating, 0 = no effect, 100 = complete control
[7] = 62 g ai/ha, preemergence, scale 0 to 100, 0 no effect, 100 complete control
[8] = 125 g ai/ha, scale 0 (no effect) to 100 (complete control), visual, 12 to 14 days, preemergence
[9] = 250 g ai/ha, scale 0-100, preemergence
[10] = scale 0 to 100, 0 no effect, 100 complete control
[11] = 125 g ai/ha, scale 0 (no effect) to 100 (complete control), visual, 12 to 14 days
[12] = 500 g ai/ha, scale 0 to 100 (0 no effect, 100 complete control), visual, 12 to 14 days
[13] = 125 g ai/ha, scale 0 to 100 (0 no effect, 100 complete control)
[14] = 250 g ai/ha, scale of 0 to 100, 0 is no effect, 100 is complete control
[15] = scale 0 to 100 (0 no effect, 100 complete control)
[16] = 125 g ai/ha, 0 to 100 scale, 0 is no effect, 100 is complete control
[17] = 62 g ai/ha, scale 0 to 100 (0 no effect, 100 complete control)
[18] = 125 g ai/ha, scale of 0 to 100, 0 is no effect, 100 is complete control
[19] = 500 g ai/ha, visual rating 0-100, 0 no effect, 100 complete control
[20] = 250 g ai/ha, scale 0 to 100 (0 no effect, 100 complete control), visual, 12 to 14 days, preemergence
[21] = 250 g ai/ha, scale 0 to 100 (0 no effect, 100 complete control), visual, 12 to 14 days

SMILES | Rice plant response rating (0 to 100 scale) (rice [1]; [5]) | Plant response rating, Rice (rice [1]; [6]) | Plant response rating, Bermudagrass (bermudagrass; [7]) | Plant response rating, Bermudagrass (bermudagrass; [8]) | Bermudagrass plant response rating (bermudagrass; [10]) | Plant response rating, Corn (corn; 62 g ai/ha, scale 0 to 100) | Plant response rating, Corn (corn; [11]) | Plant response rating, Cupgrass, Woolly (woolly cupgrass; 62 g ai/ha, scale 0 to 100) | Plant response rating, Cupgrass, Woolly (woolly cupgrass; [11]) | Plant response rating, Soybean (soybean; 62 g ai/ha, scale 0 to 100) | Plant response rating, Sunflower ([2]; 62 g ai/ha, scale 0 to 100) | Plant response rating, Velvetleaf (velvetleaf; 62 g ai/ha, scale 0 to 100) | Rice plant response rating (rice [3]; [13]) | Rice plant response rating (rice [3]; [14]) | Plant response rating, Rice (rice [3]; [15]) | Sedge, Umbrella plant response rating [4, 13] | Sedge, Umbrella plant response rating [4, 14] | Plant response rating, Sedge, Umbrella [4, 15] | Rice plant response rating (rice [3]; [17]) | Sedge, Umbrella plant response rating [4, 17] | further results
CCN1N=C(C(C)(C)C)CC1C(=O)Nc1cc(C(=O)N2CCCC2)ccc1F (racemic) [Compound 309] | 70 | 90 | 90 | 90 | 100 | 5 | 20 | 40 | 70 | 20 | 0 | 5 | 70 | 75 | 75 | 80 | 80 | 80 | – | – | Plant response rating, Bermudagrass (bermudagrass; [9]): 95; Plant response rating, Corn (corn; 250 g ai/ha, scale 0-100): 40; Plant response rating, Corn (corn; [12]): 60; Plant response rating, Cupgrass, Woolly (woolly cupgrass; 250 g ai/ha, scale 0-100): 90; Plant response rating, Cupgrass, Woolly (woolly cupgrass; [12]): 100; Plant response rating, Soybean (soybean; 250 g ai/ha, scale 0-100): 80; Plant response rating, Soybean (soybean; [12]): 80; Plant response rating, Sunflower ([2]; 250 g ai/ha, scale 0-100): 5; Plant response rating, Sunflower [2, 12]: 60; Plant response rating, Velvetleaf (velvetleaf; 250 g ai/ha, scale 0-100): 75; Plant response rating, Velvetleaf (velvetleaf; [12]): 100; Rice plant response rating (rice [3]; 62 g ai/ha, scale 0 to 100): 60; Sedge, Umbrella plant response rating ([4]; 62 g ai/ha, scale 0 to 100): 80
CCC(=NO)c1cccc(NC(=O)c2cc(C(C)(C)C)nn2C)c1 [Compound 118] | – | – | – | 100 | – | – | 10 | – | 0 | – | – | – | – | 40 | 50 | – | 50 | 50 | 20 | 0 | Plant response rating, Rice (rice [1]; [16]): 0; Plant response rating, Bermudagrass (bermudagrass; 16 g ai/ha, scale 0 to 100, 0 no effect, 100 complete control, last section of Table C (species set of preemergence test)): 0; Plant response rating, Bermudagrass (bermudagrass; 31 g ai/ha, preemergence, scale 0 to 100): 30; Plant response rating (0 = no effect, 100 = complete control), Bermudagrass (bermudagrass; 62 g ai/ha, preemergence): 90; Plant response rating, Corn (corn; 31 g ai/ha, scale 0 to 100): 0; Plant response rating (0 = no effect, 100 = complete control), Corn (corn; 62 g ai/ha): 0; Plant response rating, Cupgrass, Woolly (woolly cupgrass; 31 g ai/ha, scale 0 to 100): 0; Plant response rating (0 = no effect, 100 = complete control), Cupgrass, Woolly (woolly cupgrass; 62 g ai/ha): 0; Plant response rating, Soybean (soybean; 31 g ai/ha, scale 0 to 100): 0; Plant response rating (0 = no effect, 100 = complete control), Soybean (soybean; 62 g ai/ha): 0; Plant response rating, Soybean (soybean; [11]): 10; Plant response rating, Sunflower ([2]; 31 g ai/ha, scale 0 to 100): 0; Plant response rating (0 = no effect, 100 = complete control), Sunflower ([2]; 62 g ai/ha): 0; Plant response rating, Sunflower [2, 11]: 20; Plant response rating, Velvetleaf (velvetleaf; 31 g ai/ha, scale 0 to 100): 0; Plant response rating, Velvetleaf (velvetleaf; [11]): 40; Rice plant response rating (rice [3]; [18]): 30; Sedge, Umbrella plant response rating [4, 18]: 50
CCn1nc(C(C)(C)C)cc1C(=O)Nc1cc(C#N)ccc1F [Compound 140] | – | – | – | 0 | 85 | – | 0 | – | 0 | – | – | – | 0 | 0 | 0 | 20 | 45 | 65 | 0 | 0 | Plant response rating, Rice (rice [1]; [19]): 70; Plant response rating, Rice (rice [1]; [16]): 0; Plant response rating (0 = no effect, 100 = complete control), Bermudagrass (bermudagrass; 62 g ai/ha, preemergence): 0; Plant response rating, Bermudagrass (bermudagrass; [20]): 60; Plant response rating (0 = no effect, 100 = complete control), Corn (corn; 62 g ai/ha): 0; Plant response rating, Corn (corn; [21]): 0; Corn plant response rating (corn; 500 g ai/ha): 0; Plant response rating (0 = no effect, 100 = complete control), Cupgrass, Woolly (woolly cupgrass; 62 g ai/ha): 0; Plant response rating, Cupgrass, Woolly (woolly cupgrass; [21]): 0; Cupgrass, Woolly plant response rating (woolly cupgrass; 500 g ai/ha): 45; Plant response rating (0 = no effect, 100 = complete control), Soybean (soybean; 62 g ai/ha): 0; Soybean plant response rating (soybean; 500 g ai/ha): 0; Plant response rating (0 = no effect, 100 = complete control), Sunflower ([2]; 62 g ai/ha): 0; Plant response rating, Sunflower [2, 11]: 0; Sunflower plant response rating ([2]; 500 g ai/ha): 0; Plant response rating, Velvetleaf (velvetleaf; [11]): 0; Velvetleaf plant response rating (velvetleaf; 500 g ai/ha): 20
CCc1nn(C(C)(C)C)cc1C(=O)Nc1cccc(C(C)=NO)c1 [Compound 188] | 50 | – | 75 | 100 | 100 | 0 | 0 | 0 | 60 | 0 | 0 | 0 | 45 | 65 | 75 | 75 | 80 | 85 | 35 | 30 | Plant response rating, Rice (rice [1]; [19]): 70; Plant response rating, Bermudagrass (bermudagrass; [20]): 100; Plant response rating, Corn (corn; [21]): 0; Corn plant response rating (corn; 500 g ai/ha): 5; Plant response rating, Cupgrass, Woolly (woolly cupgrass; [21]): 70; Cupgrass, Woolly plant response rating (woolly cupgrass; 500 g ai/ha): 75; Plant response rating, Soybean (soybean; [11]): 0; Soybean plant response rating (soybean; 500 g ai/ha): 0; Plant response rating, Sunflower [2, 11]: 0; Sunflower plant response rating ([2]; 500 g ai/ha): 0; Plant response rating, Velvetleaf (velvetleaf; [11]): 0; Velvetleaf plant response rating (velvetleaf; 500 g ai/ha): 75
CCn1nc(C(C)(C)C)cc1C(=O)Nc1cc(C(=O)N2CCCC2)ccc1F [Compound 242] | 50 | 80 | 95 | 100 | 100 | 0 | 0 | 75 | 80 | 0 | 0 | 100 | 85 | 90 | 90 | 75 | 85 | 85 | 50 | 45 | Plant response rating, Bermudagrass (bermudagrass; [9]): 100; Plant response rating, Corn (corn; 250 g ai/ha, scale 0-100): 20; Plant response rating, Corn (corn; [12]): 25; Plant response rating, Cupgrass, Woolly (woolly cupgrass; 250 g ai/ha, scale 0-100): 95; Plant response rating, Cupgrass, Woolly (woolly cupgrass; [12]): 100; Plant response rating, Soybean (soybean; 250 g ai/ha, scale 0-100): 65; Plant response rating, Soybean (soybean; [12]): 75; Plant response rating, Sunflower ([2]; 250 g ai/ha, scale 0-100): 50; Plant response rating, Sunflower [2, 12]: 95; Plant response rating, Velvetleaf (velvetleaf; 250 g ai/ha, scale 0-100): 100; Plant response rating, Velvetleaf (velvetleaf; [12]): 100
CCn1nc(C2(C)CC2)cc1C(=O)Nc1cccc(C(=O)N2CC=CC2)c1 [Compound 304] | 0 | 20 | 5 | 70 | 100 | 0 | 0 | 5 | 10 | 0 | 0 | 0 | 60 | 70 | 75 | 90 | 95 | 95 | – | – | Plant response rating, Bermudagrass (bermudagrass; [9]): 100; Plant response rating, Corn (corn; 250 g ai/ha, scale 0-100): 15; Plant response rating, Corn (corn; [12]): 30; Plant response rating, Cupgrass, Woolly (woolly cupgrass; 250 g ai/ha, scale 0-100): 60; Plant response rating, Cupgrass, Woolly (woolly cupgrass; [12]): 80; Plant response rating, Soybean (soybean; 250 g ai/ha, scale 0-100): 20; Plant response rating, Soybean (soybean; [12]): 20; Plant response rating, Sunflower ([2]; 250 g ai/ha, scale 0-100): 0; Plant response rating, Sunflower [2, 12]: 5; Plant response rating, Velvetleaf (velvetleaf; [12]): 60; Rice plant response rating (rice [3]; 62 g ai/ha, scale 0 to 100): 45; Sedge, Umbrella plant response rating ([4]; 62 g ai/ha, scale 0 to 100): 75
